# According to patent US20230159469A1, “NOVEL PHTHALAZINE DERIVATIVE HAVING ECTONUCLOEOTIDE PYROPHOSPHATASE/PHOSPHODIESTE RASE INHIBITORY ACTIVITY, AND USE THEREOF” (TXINNO BIOSCIENCE INC., priority 2020, published 2023):
# Where a name gives a salt, the structure may show the parent alone.
# Biological target: T1, human recombinant ENPP1 (Homo sapiens, UniProt P22413)
# T1 construct: purchased R & D systems
# T1 sequence (P22413 1-925): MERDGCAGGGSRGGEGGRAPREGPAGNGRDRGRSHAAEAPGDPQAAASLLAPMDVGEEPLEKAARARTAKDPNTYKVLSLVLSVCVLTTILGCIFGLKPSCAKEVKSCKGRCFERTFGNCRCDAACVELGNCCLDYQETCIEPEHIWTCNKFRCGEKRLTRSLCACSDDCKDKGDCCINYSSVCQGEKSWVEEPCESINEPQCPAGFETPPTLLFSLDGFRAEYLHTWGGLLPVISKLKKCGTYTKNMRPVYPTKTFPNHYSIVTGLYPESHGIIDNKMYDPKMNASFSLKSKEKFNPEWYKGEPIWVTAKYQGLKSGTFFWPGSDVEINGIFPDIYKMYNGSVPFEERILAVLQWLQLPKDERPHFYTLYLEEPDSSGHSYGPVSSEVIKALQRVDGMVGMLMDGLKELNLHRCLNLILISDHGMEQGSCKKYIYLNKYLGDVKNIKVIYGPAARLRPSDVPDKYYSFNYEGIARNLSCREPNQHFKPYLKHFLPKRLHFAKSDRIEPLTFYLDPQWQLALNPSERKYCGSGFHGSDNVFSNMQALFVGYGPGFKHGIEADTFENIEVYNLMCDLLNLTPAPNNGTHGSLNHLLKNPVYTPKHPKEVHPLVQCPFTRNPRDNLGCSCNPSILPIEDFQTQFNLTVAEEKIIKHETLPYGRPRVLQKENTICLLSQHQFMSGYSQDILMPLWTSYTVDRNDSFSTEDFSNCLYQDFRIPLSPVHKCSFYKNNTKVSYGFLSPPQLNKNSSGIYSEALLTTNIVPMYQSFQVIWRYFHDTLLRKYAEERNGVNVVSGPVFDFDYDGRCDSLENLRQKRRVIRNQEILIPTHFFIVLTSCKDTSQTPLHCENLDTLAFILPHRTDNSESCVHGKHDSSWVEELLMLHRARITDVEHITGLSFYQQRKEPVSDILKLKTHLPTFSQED
# Experiment: ENPP1 enzyme assay with cGAMP substrate (AMP-Glo luminescence)
# Format: biochemical
# Conditions: human recombinant ENPP1 3 ng/reaction, cGAMP 5 μM, 37° C. 90 minutes, read-out: Enzymatic activity (ENPP1 IC50)
# In short: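 Human ENPP1 hydrolysis of 5 μM cGAMP was run for 90 min at 37° C in 50 mM Tris pH 8.5, 250 mM NaCl, 0.5 mM CaCl2, 1 μM ZnCl2, 5% glycerol, 1% DMSO. AMP product was quantified by AMP-Glo luminescence; IC50 came from 3-parameter fits of % residual activity, averaged over at least two runs.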
row,SMILES,IC50
1,"CCn1nc(-c2ccc(CNC(=O)OC(C)(C)C)cc2)c2ccccc2c1=O [Compound No. 10, tert-butyl (4-(3-ethyl-4-oxo-3,4-dihydrophthalazin-1-yl)benzyl)carbamate]",> 10 µM
2,"NS(=O)(=O)NCc1ccc(-c2nn(-c3ccccc3)c(=O)c3ccccc23)cc1 [Compound No. 100, N-(4-(4-oxo-3-phenyl-3,4-dihydrophthalazin-1-yl)benzyl)sulfamide hydrochloride]",< 1 µM
3,"NCc1cccc(-c2nn(Cc3ccccc3)c(=O)c3ccccc23)c1 [Compound No. 35, 4-(3-(aminomethyl)phenyl)-2-benzylphthalazin-1(2H)-one hydrochloride]",> 10 µM
4,"C[C@@H](NS(N)(=O)=O)c1ccc(-c2n[nH]c(=O)c3ccccc23)cc1 [Compound No. 124, (R)-N-(1-(4-(4-oxo-3,4-dihydrophthalazin-1-yl)phenyl)ethyl)sulfamide hydrochloride]",< 1 µM
5,"C[C@@H](N)c1ccc(-c2n[nH]c(=O)c3ccccc23)cc1 [Compound No. 51, (R)-4-(4-(1-aminoethyl)phenyl)phthalazin-1(2H)-one hydrochloride]",< 1 µM
6,"COc1cc2c(-c3ccc(CN(C)S(N)(=O)=O)c(F)c3)n[nH]c(=O)c2cc1OC [Compound No. 113, N-(4-(6,7-dimethoxy-4-oxo-3,4-dihydrophthalazin-1-yl)-2-fluorobenzyl)-N-methyl sulfamide hydrochloride]",1 to 10 µM
7,"COc1cc2c(-c3ccc(CNS(N)(=O)=O)c(F)c3F)n[nH]c(=O)c2cc1OC [Compound No. 115, N-(4-(6,7-dimethoxy-4-oxo-3,4-dihydrophthalazin-1-yl)-2,3-difluorobenzyl)sulfamide hydrochloride]",1 to 10 µM
8,"NCC1CCN(c2n[nH]c(=O)c3ccccc23)CC1 [Compound No. 134, 4-(4-(aminomethyl)piperidin-1-yl)phthalazin-1(2H)-one hydrochloride]",1 to 10 µM
9,"Cn1nc(-c2cccc(N)c2)c2ccccc2c1=O [Compound No. 31, 4-(3-aminophenyl)-2-methylphthalazin-1(2H)-one hydrochloride]",> 10 µM
10,"Cn1nc(Cc2ccc(N)cc2)c2ccccc2c1=O [Example 159, 4-(4-aminobenzyl)-2-methylphthalazin-1(2H)-one hydrochloride]",> 10 µM
11,"CCn1nc(-c2ccc(CN)cc2)c2ccccc2c1=O [Compound No. 38, 4-(4-(aminomethyl)phenyl)-2-ethylphthalazin-1(2H)-one hydrochloride]",< 1 µM
12,"NCc1ccc(-c2n[nH]c(=O)c3ccccc23)cc1C(F)(F)F [Compound No. 53, 4-(4-(aminomethyl)-3-(trifluoromethyl)phenyl)phthalazin-1(2H)-one hydrochloride]",< 1 µM
13,"NS(=O)(=O)NCc1cccc(-c2n[nH]c(=O)c3ccccc23)c1 [Compound No. 95, N-(3-(3-oxo-3,4-dihydrophthalazin-1-yl)benzyl)sulfamide hydrochloride]",< 1 µM
14,"COc1cc2c(-c3ccc(CN(C)S(N)(=O)=O)cc3C(F)(F)F)n[nH]c(=O)c2cc1OC [Compound No. 118, hydrochloride]",> 10 µM
15,"CNc1ccc(Cc2n[nH]c(=O)c3ccccc23)cc1 [Example 162, 4-(4-(methylamino)benzyl)phthalazin-1(2H)-one hydrochloride]",> 10 µM
16,"CC(C)(C)OC(=O)NCc1ccc(-c2n[nH]c(=O)c3ccccc23)cc1C(F)(F)F [Compound No. 24, tert-butyl 4-(4-oxo-3,4-dihydrophthalazin-1-yl)-2-(trifluoromethyl)benzyl carbamate]",> 10 µM
17,"COc1ccc2c(-c3ccc(CN)cc3)nn(C)c(=O)c2c1 [Compound No. 46, 4-(4-(aminomethyl)phenyl)-7-methoxy-2-methylphthalazin-1(2H)-one hydrochloride]",> 10 µM
18,"CNS(=O)(=O)Cc1ccc(-c2nn(C)c(=O)c3ccccc23)cc1 [Example 200, N methyl-1-(4-(3-methyl-4-oxo-3,4-dihydrophthalazin-1-yl)phenyl)methanesulfonamide]",> 10 µM
19,"COc1ccc2c(=O)[nH]nc(-c3ccc(CNC(=O)OC(C)(C)C)cc3)c2c1 [Compound No. 15, tert-butyl (4-(7-methoxy-4-oxo-3,4-dihydrophthalazin-1-yl)benzyl)carbamate]",> 10 µM

# Now from value to compound:
row,IC50,SMILES
1,1 to 10 µM,"COc1cc2c(Cc3ccc(NS(=O)(=O)NC(=O)OC(C)(C)C)cc3)nn(C)c(=O)c2cc1OC [Example 172, tert-butyl (N-(4-((6,7-dimethoxy-3-methyl-4-oxo-3,4-dihydrophthalazin-1-yl)methyl)phenyl)sulfamoyl)carbamate]"
2,< 1 µM,"COc1cc2c(Cc3ccc(N(C)S(N)(=O)=O)cc3)nn(C)c(=O)c2cc1OC [Example 186, N-(4-((6,7-dimethoxy-3-methyl-4-oxo-3,4-dihydrophthalazin-1-yl)methyl)phenyl)-N-methylsulfamide hydrochloride]"
3,> 10 µM,COc1cc2c(Cc3ccc4c(c3)CCN4C(=O)OC(C)(C)C)nn(C)c(=O)c2cc1OC [Example 155]
4,> 10 µM,"COc1cc2c(Cc3cccc(NS(N)(=O)=O)c3)nn(C)c(=O)c2cc1OC [Example 179, N-(3-((6,7-dimethoxy-3-methyl-4-oxo-3,4-dihydrophthalazin-1-yl)methyl)phenyl)sulfamide hydrochloride]"
5,> 10 µM,"COc1cc2c(Cc3cccc(NC(=O)OC(C)(C)C)c3)nn(C)c(=O)c2cc1OC [Compound No. 146, tert-butyl (3-((6,7-dimethoxy-3-methyl-4-oxo-3,4-dihydrophthalazin-1-yl)methyl)phenyl)carbamate]"
6,1 to 10 µM,"COc1cc2c(-c3ccc4c(c3)CCN(S(N)(=O)=O)C4)nn(C)c(=O)c2cc1OC [Compound No. 131, 6-(6,7-dimethoxy-3-methyl-4-oxo-3,4-dihydrophthalazin-1-yl)-3,4-dihydroisoquinoline-2(1H)-sulfonamide hydrochloride]"
7,> 10 µM,"COc1cc2c(Cc3ccc4c(c3)CCN4S(=O)(=O)NC(=O)OC(C)(C)C)n[nH]c(=O)c2cc1OC [Example 176, tert-butyl (5-((6,7-dimethoxy-4-oxo-3,4-dihydrophthalazin-1-yl)methyl)indolin-1-yl)sulfonyl carbamate]"
8,> 10 µM,"COc1cc2c(Cc3cccc(NS(=O)(=O)NC(=O)OC(C)(C)C)c3)nn(C)c(=O)c2cc1OC [Example 168, tert-butyl (N-(3-((6,7-dimethoxy-3-methyl-4-oxo-3,4-dihydrophthalazin-1-yl)methyl)phenyl)sulfamoyl)carbamate]"
9,> 10 µM,"Cn1nc(Cc2ccc(NS(=O)(=O)NC(=O)OC(C)(C)C)cc2)c2ccccc2c1=O [Example 170, tert-butyl (N-(4-((3-methyl-4-oxo-3,4-dihydrophthalazin-1-yl)methyl)phenyl)sulfamoyl)carbamate]"
10,> 10 µM,"COc1ccc2c(-c3ccc(CNC(=O)OC(C)(C)C)cc3)nn(C)c(=O)c2c1 [Compound No. 18, tert-butyl (4-(6-methoxy-3-methyl-4-oxo-3,4-dihydrophthalazin-1-yl)benzyl)carbamate]"
11,> 10 µM,"Cn1nc(-c2ccc(CNS(=O)(=O)NC(=O)OC(C)(C)C)cc2)c2ccccc2c1=O [Compound No. 66, tert-butyl (N-(4-(3-methyl-4-oxo-3,4-dihydrophthalazin-1-yl)benzyl)sulfamoyl)carbamate]"
